Patent publication US5571799A, “(2'-5') oligoadenylate analogues useful as inhibitors of host-v5.-graft response” (Basco, Ltd., priority 1994, dated 1996)
“Also recorded” adds a separate entry of the source.

Columns and labels:
[1] = test system: snake venom phosphodiesterase; assay: Stability to the action of snake venom phosphodiesterase; type: in vitro ADME
Procedure: Determination of (2'-5')oligoadenylates and analogues stability to the action of snake venom phosphodiesterase
Upon entering an organism 2'-5'A3 and the analogues are quickly hydrolyzed to monomeric compound(s). Prior to administration of 2'-5'A3 analogues in vivo to animal, it was considered necessary to determine their stability towards snake venom phosphodiesterase in comparison to the parent 2'-5'A3.
The solution of 3 μg of the snake venom phosphodiesterase (Boehringer Mannheim cat. No. 108260) in 30 μl of 0.1 M Tris HCl buffer, containing 0.002 M MgCl2 (pH 8.78) is added to the solution of 4-5·10^-7 M trimer in 100 μl of the same buffer. The solution was left standing at 20° C. At regular intervals, 10 μl samples were taken, heated at 90° C. for 1 minute and preparative thin layer chromatography was performed on the Silufole™ plates, using a 7:1:2 mixture of isopropanol:aqueous ammonia:water.
The spot, corresponding to the initial trimer, was cut out, the substance was extracted with 2 ml of 0.5% solution of the dodecylsulfate sodium salt solution for 2 hours, and the optical density of the solution was determined at 260 nm.

[2] = test system: T-lymphocytes (murine splenocytes) stimulated with Concanavalin A; assay: In vitro blast-transformation of murine lymphocytes, Con A (T-lymphocyte mitogen), [3H]-thymidine; type: cell-based, mouse (CBA); details: Con A 5 μg/ml; 5 × 10^-6 M; control 22,296
Excerpt: (§1) The immune reactions in an organism begins with the division of lymphocytes. In vitro investigation of the lymphocyte blast-transformationreaction under the influence of mitogens makes it possible to use this model system to select chemically synthesized 2'-5'A3 analogues which suppress division of lymphocytes. Using Concanavalin A and lipopolysaccharide as mitogens, the effect of analogues on the division of T- and β-lymphocytes may be investigated.
CBA mice 8-10 weeks old were used for these experiments. A suspension of mouse splenocytes were obtained by gently teasing spleens with forceps. […] Cultures were maintained in 5% CO2 at 37° C. One μCi of ^3 H-thymidine (Isotop®) was added to each well 4 hours before the end of the incubation period. Incorporation of ^3 H-thymidine into cellular DNA was determined by liquid scintillation counting using standard techniques. Oligoadenylate was added to the medium at the beginning of culturing to achieve the final concentration.
(§2) (Con A being a mitogen for T-lymphocytes and LPS being a mitogen for β-lymphocytes).

[3] = test system: β-lymphocytes (murine splenocytes) stimulated with lipopolysaccharide; assay: In vitro blast-transformation of murine lymphocytes, LPS (β-lymphocyte mitogen), [3H]-thymidine; type: cell-based, mouse (CBA); details: LPS 0.1 μg/ml; 5 × 10^-6 M; control 27,133
Excerpt: as §1
CBA mice 8-10 weeks old were used for these experiments. A suspension of mouse splenocytes were obtained by gently teasing spleens with forceps. Lymphocytes cultivated in flat-bottomed 96-well plates (Linbro) in RPMI-1640 medium (Flow Lab.) were supplemented with 2 mM 1-glutamine, 10 μg/ml gentamicin, 10^-5 M 2-mercaptoethanol and 10% heat inactivated fetal calf serum (Flow Lab). Cultures were maintained in 5% CO2 at 37° C. One μCi of ^3 H-thymidine (Isotop®) was added to each well 4 hours before the end of the incubation period. Incorporation of ^3 H-thymidine into cellular DNA was determined by liquid scintillation counting using standard techniques. Oligoadenylate was added to the medium at the beginning of culturing to achieve the final concentration.
as §2

[4] = test system: T-helpers; assay: Immune system of monkeys: T-helpers, flow cytofluorografic analysis; type: in vivo, Macaque Rh. monkeys
Procedure: (§3) The experiments were performed on 4 year-old Macaque Rh. monkeys. The levels of the principal subpopulations of T-lymphocytes, IgA, IgG, IgM and the amount of α- and γ-interferon and interleukin II after administration (2'-5')olygoadenylate and its analogies at the concentration of 50 and 25 μg/kg of the body weight was investigated.
(§4) FLOW CYTOFLUOROGRAFIC ANALYSIS OF LYMPHOCYTE SUBSETS
(§5) Blood samples (100 μl of whole blood) were placed into a 12×17 tube. To these cells 20 μl of purified monoclonal antibodies were added with specificity for human cytotoxic/suppressor cells anti-Leu-2a (CD8), human helper/inducer anti-Leu-3a (CD4) and FITC conjugated monoclonal antibodies with specificity for natural killer cells-anti-Leu11c (CD16) (Becton Dickinson, San Jose). After 30 minutes incubation on ice, the cells were washed once and 20 μl of goat-antimouse chain phycoerythrin (Sigma P1286) conjugate were added to the tube with anti-Leu-2a and anti-Leu-3a monoclonal antibodies.
(§6) After erythrocyte lysing with FACS lysing solution (Becton Dickinson, San Jose) the cells were analyzed on FACScan flow cytometer (Becton Dickinson, San Jose) with scatter gate set on lymphocyte fraction.

[5] = test system: T-suppressors; assay: Immune system of monkeys: T-suppressors, flow cytofluorografic analysis; type: in vivo, Macaque Rh. monkeys
Procedure: as §3, with “Immunosuppressive activity of the prototype 2'-5'A3 and two analogues (2'-5')A2 Ar-epoxy and (2'-5')A2 A^l-epoxy were investigated in monkeys. The experiments” for “The experiments”
as §4, §5, §6

[6] = test system: T-killers and T-helpers; assay: Immunosuppressive activity in vivo in monkeys; set-up: species or system Macaque Rh. monkeys; details: monkeys, IV, disodium salt
Procedure: as §3, §4, §5, §6

[7] = test system: Type I and II herpes virus; details: cited from earlier work

Adenylyl (2'-5')adenylyl (2'-5')-9-(2,3-anhydro-β-D-lyxofuranosyl) adenine disodium salt [(2'-5')A2 A^l-epoxy]
T 1/2 (time for optical density of initial trimer to decrease by 50%) ([1]; 20° C., 0.1 M Tris HCl, 0.002 M MgCl2, pH 8.78): 10.5 h | stability / resistance to phosphodiesterase ([1]; in words): significantly more resistant towards hydrolysis by phosphodiesterase | DNA synthesis at [^3 H]-thymidine [incorporated counts/min.] [2]: 15,749 counts/min. | DNA synthesis at [^3 H]-thymidine [incorporated counts/min.] [3]: 10,828 counts/min. | T-helpers ([4]; Table 8, single IV 25 μg/kg, day 2, control (day before) 26.2): 27% | T-helpers ([4]; Table 8, single IV 25 μg/kg, day 4, control (day before) 26.2): 25.3% | T-helpers ([4]; Table 9, single IV 50 μg/kg, day 2, control (day before) 22): 20.5% | T-helpers ([4]; Table 9, single IV 50 μg/kg, day 4, control (day before) 22): 18.4% | T-suppressors ([5]; Table 8, single IV 25 μg/kg, day 2, control (day before) 53.1): 44% | T-suppressors ([5]; Table 8, single IV 25 μg/kg, day 4, control (day before) 53.1): 43.4% | T-suppressors ([5]; Table 9, single IV 50 μg/kg, day 2, control (day before) 42): 44% | T-suppressors ([5]; Table 9, single IV 50 μg/kg, day 4, control (day before) 42): 43.4% | immunosuppressive activity, in words [6]: considerably lower than that exhibited by (2'-5')A2 Ar-epoxy; also recorded: exhibit immunosuppressive activity in the in vivo experiments | immunosuppressive activity, in words ([6]; listed as (2 -5')A2 A^l-epoxy): strong immunosuppressive activity specifically against T-killers and T-helpers | activity against Type I and II herpes virus, in words [7]: active against the Type I and II herpes virus
